The text below walks through data of patent publication US7842488B2, “Polynucleotides encoding a human 3-phosphoinositide- dependent protein kinase” (Medical Research Council, priority 1997, dated 2010).

The test system of test [1] is PDK1. In words: PDK1 assay: activation of GST-PKBα by purified PDK1 with phospholipid vesicles. Format: biochemical, rabbit. The conditions noted are these: lipid 10 μM in vesicles of 100 μM PtdCho, 100 μM PtdSer, 30 min at 30° C. How it is done: Assay of PDK1. The assay was carried out in two stages; in the first, GST-PKBα was incubated with PDK1 in the presence of MgATP and phospholipid vesicles to permit activation of GST-PKBα.
After 10 min at 30° C., the reactions were terminated by spotting the reaction mixture on to p81 phosphocellulose paper. The papers were washed in phosphoric acid and analysed as described previously. […] The basal GST-PKBα activity is the activity measured in the absence of PDK1.

The test system of test [2] is PDK1. In words: Phosphorylation of GST-PKBα by PDK1 with [γ32P]ATP. The conditions noted are these: lipid 10 μM in PtdCho/PtdSer vesicles. The class given is biochemical, rabbit. How it is done: Solutions were stored at 4° C. at concentrations 10-fold higher than those required in the assay and used within 2-4 days.
Phosphorylation of GST-PKB ? by PDK1. The incubations were identical to the Stage 1 described above except that [γ^32P] ATP (200-400 cpm/pmol) was used instead of unlabelled ATP. The reactions were terminated by making the solution 1% (by mass) in SDS. […] The Coomassie blue-staining bands corresponding to GST-PKBα were excised and the ^32P-radioactivity associated with each band was quantified.

Test [3] concerns the target T1, GST-PDK1 (Homo sapiens, UniProt O15530).
T1 construct: Residues 52-556 of PDK1 were expressed in human embryonic kidney 293 cells; made in house; host or cells: human embryonic kidney 293 cells (pEBG2T)
T1 sequence (O15530 52-556): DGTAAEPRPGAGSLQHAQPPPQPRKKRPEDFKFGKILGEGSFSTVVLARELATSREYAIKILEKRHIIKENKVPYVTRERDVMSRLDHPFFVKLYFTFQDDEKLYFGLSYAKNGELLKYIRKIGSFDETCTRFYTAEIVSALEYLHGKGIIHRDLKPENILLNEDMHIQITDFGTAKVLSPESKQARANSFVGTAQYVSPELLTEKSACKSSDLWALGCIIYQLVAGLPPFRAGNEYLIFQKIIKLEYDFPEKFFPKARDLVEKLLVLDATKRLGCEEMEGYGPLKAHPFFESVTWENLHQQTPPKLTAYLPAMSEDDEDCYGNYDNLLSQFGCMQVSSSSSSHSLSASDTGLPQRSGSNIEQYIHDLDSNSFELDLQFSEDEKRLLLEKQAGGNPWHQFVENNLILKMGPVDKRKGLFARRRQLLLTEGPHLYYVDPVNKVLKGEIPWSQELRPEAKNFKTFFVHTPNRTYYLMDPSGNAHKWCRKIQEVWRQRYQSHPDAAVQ
As to the kind of experiment: GST-PDK1 assay: activation and phosphorylation of GST-PKBα. The settings on record: lipid 10 μM in PtdCho/PtdSer vesicles. Format: biochemical. How it is done: (§1) FIG. 12. […] In panels A and C, the assays were terminated by making the incubations 1% (by vol) in TRITON X-100™ (see Ref 21), and the increase in specific activity of GST-PKBα was determined. In panels B and D, the reactions were terminated by making the solutions 1% in SDS, the samples were subjected to SDS/polyacrylamide gel electrophoresis, and the phosphorylation was assessed by autoradiography of the Coomassie blue-stained band corresponding to GST-PKBα.
(§2) One unit of PDK1 activity was defined as that amount required to increase the basal activity of GST-PKBα by 1 unit of activity in one min.

For test [4], the target named is T2, GST-DSTPK61 (Drosophila melanogaster, UniProt Q9W0V1).
T2 construct: residues 1-752 of DSTPK61 in E. coli as fusion proteins; made in house; host or cells: E. coli (pGEX-3X)
T2 sequence (Q9W0V1 85-836 Q200H/Q201E/Q317A/G443R): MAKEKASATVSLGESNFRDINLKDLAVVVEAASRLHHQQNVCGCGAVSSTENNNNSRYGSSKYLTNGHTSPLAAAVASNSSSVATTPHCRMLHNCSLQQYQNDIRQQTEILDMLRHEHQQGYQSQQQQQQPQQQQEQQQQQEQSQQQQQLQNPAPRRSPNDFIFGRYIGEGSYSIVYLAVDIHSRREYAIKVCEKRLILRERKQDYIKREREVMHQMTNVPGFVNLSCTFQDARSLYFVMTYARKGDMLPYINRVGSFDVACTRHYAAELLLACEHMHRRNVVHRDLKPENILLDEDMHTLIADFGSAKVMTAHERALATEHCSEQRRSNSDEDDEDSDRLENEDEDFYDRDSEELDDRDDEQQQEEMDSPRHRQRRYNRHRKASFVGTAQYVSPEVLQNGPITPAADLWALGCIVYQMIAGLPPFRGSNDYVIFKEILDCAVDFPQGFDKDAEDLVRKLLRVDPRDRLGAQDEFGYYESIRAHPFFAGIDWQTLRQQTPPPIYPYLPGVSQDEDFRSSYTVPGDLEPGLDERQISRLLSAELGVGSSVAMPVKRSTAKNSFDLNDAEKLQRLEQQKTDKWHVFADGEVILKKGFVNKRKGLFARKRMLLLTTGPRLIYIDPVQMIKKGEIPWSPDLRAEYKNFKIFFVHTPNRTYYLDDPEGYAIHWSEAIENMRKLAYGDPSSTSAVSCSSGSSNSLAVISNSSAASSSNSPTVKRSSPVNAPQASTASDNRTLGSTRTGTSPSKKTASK
In words: GST-DSTPK61 assay: activation and phosphorylation of GST-PKBα. The class given is biochemical. The conditions noted are these: lipid 10 μM in PtdCho/PtdSer vesicles. How it is done:
as §1, §2

Test [5] concerns HA-PKBα. In words: HA-PKBα activity in transfected 293 cells. Format: cell-based, human. How it is done: FIG. 14. PKBα is activated by cotransfection with PDK1 in 293 cells. (A) 293 cells were transiently transfected with DNA constructs expressing either HA-PKBα or both HA-PKBα and Myc-PDK1. The cells were then stimulated for 10 min with or without 50 ng/ml IGF1, the HA-PKBα immunoprecipitated from the lysates and assayed. The results are expressed relative to the specific activity of wild type HA-PKBα in unstimulated 293 cells ([…]). No PKBα activity was detected in mock transfections in which the cells were transfected with PCMV5 vector alone (data not shown). (B) 6 μg of protein from each lysate was electrophoresed on a 10% SDS/polyacrylamide gel and immunoblotted using either a monoclonal HA-antibody to detect HA-PKBα or a monoclonal Myc-antibody to detect Myc-PDK1. The molecular mass markers are glycogen phosphorylase (97 kDa), bovine serum albumin (67 kDa) and ovalbumin (43 kDa).
Transfection of 293 cells with HA-tagged PBKα and Myc-PDK1. Human embryonic kidney 293 cells were cultured on 10 cm diameter dishes and transfected with 2 μg/ml pCMV5 DNA constructs encoding for HA-PKBα or HA-PKBα plus Myc-PDK1 [20]. After 24 h the cells were deprived of serum for a further 16 h and then stimulated for 10 min with either […] IGF1 or Buffer. The cells were lysed in 1.0 ml of ice-cold Buffer A, the lysate centrifuged at 4° C. for 10 min at 13,000×g and HA-PKBα immunoprecipitated from aliquots of the supernatant (10 μg protein) and assayed for PKBα with the peptide RPRAATF (SEQ ID NO: 9) as described previously.

The subject of test [6] is HA-PKBα. In words: 32P-labelling of transfected 293 cells: phosphorylation sites of HA-PKBα. The conditions noted are these: unstimulated 293 cells. The class given is cell-based, human. How it is done:
FIG. 15. Overexpression of PDK1 in cells induces phosphorylation of PKBα at Thr308. 293 cells transiently transfected with either wild type HA-PKBα (panels A and C) or HA-PKBα and Myc-PDK1 (panels B and D) were incubated with ^32P-orthophosphate, then treated for 10 min without (panels A and B) or with (panels C and D) 50 ng/ml IGF1. The ^32P-labelled HA-PKBα was immunoprecipitated from the lysates, treated with 4-vinylpyridine, and electrophoresed on 1 10% polyacrylamide gel. The HA-PKBα was excised from the gel, digested with trypsin and chromatographed on a C18 column (see legend to FIG. 13) to resolve the four major phosphopeptides which are phosphorylated at Ser-124, Ser473, Thr308 and Thr450 respectively. The identity of each phosphopeptide was established by phospho-amino acid analysis and solid phase sequencing. Similar results were obtained in two separate experiments for (panels A and C), and in three separate experiments (panels B and D).
^32P-labelling of 293 cells transfected with HA-PKBα or Myc-PDK1. This was carried out essentially as described previously. Briefly, 293 cells were transfected with HA-PKBα, or with HA-PKBα plus Myc-PDK1, washed with phosphate free DMEM, incubated for 4 h with [^32P]-orthophosphate (1 mCi/ml), then stimulated with IGF1 (50 ng/ml) for 5 min. The cells were lysed, and the HA-PKBα immunoprecipitated (using 10 μg of 12CAS antibody per 10 cm dish of cells) or the Myc-PDK1 immunoprecipitated (using 10 μg of 9E10 antibody per 10 cm dish of cells). The immunoprecipitated protein was alkylated with 4-vinylpyridine, subjected to SDS/polyacrylamide gel electrophoresis, digested with trypsin and analysed by chromatography on a C18 column (Alessi et al (1996) EMBO J. 15, 6541-6551).

As to PtdIns 4P [Lipid 10], the “activation of PDK1 (in words)” value is listed as “no significant activation” in test [1], “did not activate PDK1 at all” in test [1] (listed as PtdIns(4)P) and “did not activate PDK1” in test [1] (listed as lipid 10). Besides, the “phosphorylation of GST-PKBα by PDK1 (in words)” value in test [2] was “did not activate PDK1 or induce the phosphorylation”.

As to `CCCCCCCCCCCCCCCC(=O)OC[C@H](COP(=O)(O)OC1C(O)C(O)C(O)C(OP(=O)(O)O)C1O)OC(=O)CCCCCCCCCCCCCCC` (some centres unmarked) [Lipid 11, sn-1,2 di-palmitoyl PtdIns-3P], the “activation of PDK1 (in words)” value was “no significant activation” in test [1], “did not activate PDK1 at all” in test [1] (listed as PtdIns(3)P) and “did not activate PDK1” in test [1] (listed as lipid 11). In test [2], the “phosphorylation of GST-PKBα by PDK1 (in words)” value was “did not activate PDK1 or induce the phosphorylation”. Moreover, the “activation and phosphorylation of GST-PKBα by GST-PDK1 (in words)” value in test [3] is on record as “no activation or phosphorylation”. Also, the “activation and phosphorylation of GST-PKBα by GST-DSTPK61 (in words)” value in test [4] is “no activation or phosphorylation”.

B1: Myc-PDK1: Myc-epitope tagged PDK1 transfected into 293 cells (protein)
chain: T1 sequence (O15530 52-556)
modifications: left off: small tags and cut ends
Turning to B1, the “fold increase of HA-PKBα activity on cotransfection” value in test [5] (unstimulated 293 cells) is 20 fold. Also, the “phosphorylation of HA-PKBα at Thr308 relative to IGF1-stimulated cells transfected with HA-PKBα alone” value in test [6] (cotransfection) is on record as 70%. In test [6], the “phosphorylation of HA-PKBα at Ser473 on cotransfection (in words)” value was “did not induce phosphorylation of HA-PKBα at Ser473”.

B2: Myc-D223A-PDK1: catalytically inactive mutant of PDK1, Myc-tagged (protein)
chain: MARTTSQLYDAVPIQSSVVLCSCPSPSMVRTQTESSTPPGIPGGSRQGPAMDGTAAEPRPGAGSLQHAQPPPQPRKKRPEDFKFGKILGEGSFSTVVLARELATSREYAIKILEKRHIIKENKVPYVTRERDVMSRLDHPFFVKLYFTFQDDEKLYFGLSYAKNGELLKYIRKIGSFDETCTRFYTAEIVSALEYLHGKGIIHRDLKPENILLNEDMHIQITAFGTAKVLSPESKQARANSFVGTAQYVSPELLTEKSACKSSDLWALGCIIYQLVAGLPPFRAGNEYLIFQKIIKLEYDFPEKFFPKARDLVEKLLVLDATKRLGCEEMEGYGPLKAHPFFESVTWENLHQQTPPKLTAYLPAMSEDDEDCYGNYDNLLSQFGCMQVSSSSSSHSLSASDTGLPQRSGSNIEQYIHDLDSNSFELDLQFSEDEKRLLLEKQAGGNPWHQFVENNLILKMGPVDKRKGLFARRRQLLLTEGPHLYYVDPVNKVLKGEIPWSQELRPEAKNFKTFFVHTPNRTYYLMDPSGNAHKWCRKIQEVWRQRYQSHPDAAVQ
modifications: left off: small tags and cut ends
Turning to B2, the “activation of HA-PKBα on cotransfection (in words)” value in test [5] (293 cells) is recorded as “not activated significantly”.
